Results on six compounds are retold here after ChEMBL document CHEMBL1201862, “PubChem BioAssay data set” (2004).

Among the test systems are A549; SNB-19; NCI-H23; ACHN; HOP-62; CCRF-CEM; NCI-H522; MOLT-4; SW-620; HCT-15; SF-295; NCI-H226; SNB-75; HCT-116.
What all share (test): NCI tumour cell line growth inhibition, 48 h

The structures appear in SMILES notation.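 A five-concentration, 48-hour dose response in 96-well plates underlies each endpoint, interpolated linearly between surrounding concentrations. GI50 marks 50% less growth.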 The source made the active and inactive calls. No stated cut-off is given here; in the data, active = GI50 up to about 1.1 µM and inactive = higher. Bounds are passed on as bounds.

As for `O=C(CC1(O)C(=O)Nc2c(Cl)cccc21)c1ccccc1` (centres undefined), the GI50 in the assay on A549, with SNB-19, in the assay on NCI-H23, with ACHN, with HOP-62 and in the assay on CCRF-CEM was > 100 µM (inactive) in each case. In addition, the GI50 is > 100 µM (inactive) with NCI-H522; > 100 µM (inactive) in the assay with MOLT-4; 76.4 µM (inactive) in the assay with SW-620; above 100 µM with HCT-15; > 100 µM (inactive) in the assay on SF-295; > 100 µM (inactive) with NCI-H226. Moreover, the GI50 with SNB-75 is 85.9 µM (inactive).
For `N#CNCC(COCc1ccccc1)c1ccccc1` (centres undefined), the GI50 in the assay on A549, in the assay with SNB-19, in the assay on NCI-H23, in the assay with ACHN, with HOP-62 and in the assay on CCRF-CEM was > 100 µM (inactive) in each case. The GI50 in the assay on NCI-H522 is > 100 µM (inactive); in the assay on MOLT-4, 71.1 µM (inactive); in the assay with SW-620 it was 70.5 µM (inactive); in the assay with HCT-15, 86.1 µM; with HCT-116, > 100 µM (inactive); with NCI-H226, 98.4 µM (inactive). Besides, the GI50 in the assay with SNB-75 was 41.9 µM (inactive).
Turning to `CCOc1ccc(OCC)c([P+](c2ccccc2)(c2ccccc2)c2ccccc2)c1`, the GI50 is 0.443 µM (active) in the assay with A549; 0.378 µM (active) in the assay on SNB-19; 0.254 µM (active) with NCI-H23; 1.65 µM (inactive) in the assay with ACHN; 1.07 µM (active) in the assay on HOP-62; 0.322 µM (active) in the assay with CCRF-CEM. Moreover, the GI50 in the assay with SW-620 was 0.44 µM (active); with SF-295 it was 0.33 µM (active); in the assay on HCT-116 it was 0.27 µM (active); in the assay on NCI-H226 it was 0.406 µM (active); in the assay with SNB-75 it was 1.09 µM (active).
Regarding `CCOC(=O)C(Sc1ccccc1)c1c(OC)cc(=O)oc1/C=[N+](/[O-])c1ccc(N(C)C)cc1` (centres undefined), the GI50 was 28.4 µM (inactive) in the assay with A549; 54.8 µM (inactive) in the assay on SNB-19; 27.5 µM (inactive) with NCI-H23; > 10 µM (inactive) in the assay with ACHN; 66.4 µM (inactive) with HOP-62; 4.52 µM (inactive) in the assay on CCRF-CEM. Besides, the GI50 was 13.8 µM (inactive) with MOLT-4; 14.7 µM (inactive) with SW-620; 15.4 µM in the assay with HCT-15; 24.4 µM (inactive) in the assay on SF-295; 31.3 µM (inactive) in the assay on SNB-75.
`Cc1nc2c(=O)n(C)c(=O)nc-2n(-c2ccc(Cl)cc2)c1C`: the GI50 in the assay on A549 was > 100 µM (inactive); in the assay with SNB-19, > 100 µM (inactive); in the assay on NCI-H23, > 100 µM (inactive); in the assay with ACHN, 58.6 µM (inactive); in the assay with HOP-62 it was > 100 µM (inactive); in the assay on CCRF-CEM, 60.1 µM (inactive). Further, the GI50 in the assay with NCI-H522 was > 100 µM (inactive); with SW-620, > 100 µM (inactive); with HCT-15, 61.9 µM; in the assay with SF-295 it was > 100 µM (inactive); in the assay on NCI-H226 it was > 100 µM (inactive); in the assay with SNB-75, > 100 µM (inactive).
For the compound `COc1cccc(-n2c3nc(=O)n(C)c(=O)c-3nc3ccccc32)c1`, the GI50 with A549 is 12.6 µM (inactive); with SNB-19, 22 µM (inactive); with NCI-H23 it was 15.7 µM (inactive); in the assay with ACHN it was 3.18 µM (inactive); in the assay on HOP-62, 37.9 µM (inactive); in the assay with CCRF-CEM it was 19 µM (inactive). Besides, the GI50 with NCI-H522 is 29.3 µM (inactive); with MOLT-4, 16.3 µM (inactive); in the assay on SW-620, 5.09 µM (inactive); in the assay with HCT-15 it was 13.4 µM; in the assay on SF-295, 13.2 µM (inactive); with HCT-116, 23.1 µM (inactive). In addition, the GI50 is 17.7 µM (inactive) in the assay on NCI-H226 and 19.6 µM (inactive) in the assay with SNB-75.
